Experimental data reported in ChEMBL document CHEMBL1201862, “PubChem BioAssay data set” (2004).
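Cells were grown in 96-well plates and exposed to each compound for 48 hours at five concentrations; endpoints were interpolated linearly between bracketing concentrations, or set to the highest concentration if not reached. Here, GI50 denotes the concentration required for 50% inhibition of growth.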 The source made the active and inactive calls. Rule as the data show it: active = GI50 up to about 1.1 µM and inactive = higher.

What was measured:
Assay in all cases: NCI-60 cell line screen, 48 h
[1] = test system: A549
[2] = test system: COLO 205
[3] = test system: HCT-15
[4] = test system: HL-60
[5] = test system: HT-29
[6] = test system: Hs-578T
[7] = test system: LOX IMVI
[8] = test system: MDA-MB-435
[9] = test system: NCI-H23
[10] = test system: NCI-H460
[11] = test system: PC-3
[12] = test system: SF-539
[13] = test system: SK-MEL-28
[14] = test system: SK-OV-3
[15] = test system: SN12C
[16] = test system: SR
[17] = test system: SW-620
[18] = test system: UO-31
[19] = test system: T47D

SMILES | GI50 [1] | GI50 [2] | GI50 [3] [µM] | GI50 [4] | GI50 [5] | GI50 [6] | GI50 [7] | GI50 [8] | GI50 [9] | GI50 [10] | GI50 [11] | GI50 [12] | GI50 [13] | GI50 [14] | GI50 [15] | GI50 [16] | GI50 [17] | GI50 [18] | GI50 [19]
Nc1ncnc2c1nc(O)n2-c1ccccc1 | > 100 µM (inactive) | > 100 µM (inactive) | > 100 | > 100 µM (inactive) | > 100 µM (inactive) | > 100 µM (inactive) | > 100 µM (inactive) | > 100 µM (inactive) | > 100 µM (inactive) | > 100 µM (inactive) | > 100 µM (inactive) | > 100 µM (inactive) | > 100 µM (inactive) | > 100 µM (inactive) | > 100 µM (inactive) | > 100 µM (inactive) | > 100 µM (inactive) | 57.7 µM (inactive) | 
C=CCC(SC)C1=C(C)C(=O)c2ccccc21 (configuration not stated) | > 10 µM (inactive) |  | > 10 |  | > 10 µM (inactive) |  | > 10 µM (inactive) | > 10 µM (inactive) | > 10 µM (inactive) | > 10 µM (inactive) | > 10 µM (inactive) | > 10 µM (inactive) | > 10 µM (inactive) | > 10 µM (inactive) | > 10 µM (inactive) | > 10 µM (inactive) | > 10 µM (inactive) | > 10 µM (inactive) | > 10 µM (inactive)
O=C(OCC(Cl)(Cl)Cl)N1CC[C@@H](C2CCCCC2)C1 | 27.3 µM (inactive) | 23.6 µM (inactive) | 18.7 |  |  |  | 40.6 µM (inactive) | < 0.01 µM (active) | 20.2 µM (inactive) | 21 µM (inactive) | 21.2 µM (inactive) |  |  | 42.6 µM (inactive) | 29.3 µM (inactive) | 32.2 µM (inactive) |  | 20.7 µM (inactive) | 32.7 µM (inactive)
CC1=NN(C(=O)CSc2nnc(SCC(=O)N3N=C(C)CC3(O)c3ccccc3)s2)C(O)(c2ccccc2)C1 (configuration not stated) | 48.4 µM (inactive) | 32.1 µM (inactive) | 33.2 |  |  | 36.3 µM (inactive) | 22.8 µM (inactive) | 51.3 µM (inactive) | 34 µM (inactive) | 27.6 µM (inactive) | 34.5 µM (inactive) |  | > 100 µM (inactive) | > 100 µM (inactive) | 61.7 µM (inactive) | 23.3 µM (inactive) | > 100 µM (inactive) | 22.3 µM (inactive) | 
COc1ccc(-c2oc(/C=N/NC(N)=S)c([N+](=O)[O-])c2-c2ccc(OC)c(OC)c2)cc1OC | 35.6 µM (inactive) | > 100 µM (inactive) | 29.4 | 21.7 µM (inactive) | 23.1 µM (inactive) |  | 15.9 µM (inactive) |  | 32 µM (inactive) |  |  | 25.4 µM (inactive) | 23.9 µM (inactive) | 21 µM (inactive) | 36 µM (inactive) |  | 33.1 µM (inactive) |  | 
N=C(N)N/N=C/c1oc(-c2ccc(S(=O)(=O)O)o2)c(-c2ccc(S(=O)(=O)O)o2)c1[N+](=O)[O-] | > 100 µM (inactive) | > 100 µM (inactive) | > 100 | > 100 µM (inactive) | > 100 µM (inactive) |  | > 100 µM (inactive) |  | > 100 µM (inactive) | > 100 µM (inactive) |  | > 100 µM (inactive) | > 100 µM (inactive) | > 100 µM (inactive) | > 100 µM (inactive) | > 100 µM (inactive) | > 100 µM (inactive) | > 100 µM (inactive) | 
Cc1c2n(c3ccccc13)S(=O)(=O)c1ccccc1-2 | 23.4 µM (inactive) | > 100 µM (inactive) | 48.1 | > 100 µM (inactive) | 15.4 µM (inactive) | 18.7 µM (inactive) | 44.6 µM (inactive) | > 100 µM (inactive) | 23.2 µM (inactive) | 30.5 µM (inactive) | 22.5 µM (inactive) |  | > 100 µM (inactive) | 14.6 µM (inactive) |  | > 100 µM (inactive) | > 100 µM (inactive) | 18.4 µM (inactive) | 
[O-][N+]1=C(c2ccccc2)/C(=C2/C(c3ccccc3)=[N+]([O-])c3ccccc32)Cc2ccccc21 | 13.8 µM (inactive) | 17.3 µM (inactive) | 16.9 | 40.1 µM (inactive) | 19.4 µM (inactive) |  | 16.7 µM (inactive) | 20.2 µM (inactive) | 15.5 µM (inactive) |  | 12.9 µM (inactive) | 24.2 µM (inactive) | 22.3 µM (inactive) | 26.4 µM (inactive) | 16.6 µM (inactive) |  | 22.4 µM (inactive) | 14.5 µM (inactive) | 16.3 µM (inactive)
COC[C@@H](/N=C/c1ccc([N+](=O)[O-])cc1)C(C)C | > 100 µM (inactive) |  | > 100 |  | > 100 µM (inactive) | > 100 µM (inactive) | 52.7 µM (inactive) | > 100 µM (inactive) | > 100 µM (inactive) | > 100 µM (inactive) | > 100 µM (inactive) |  | > 100 µM (inactive) | > 100 µM (inactive) | > 100 µM (inactive) | 92.7 µM (inactive) | > 100 µM (inactive) | > 100 µM (inactive) | 
S=c1nc(Nc2ccc(Cl)cc2)c2c3c(sc2[nH]1)CCCC3 |  | > 100 µM (inactive) | > 100 | 54 µM (inactive) | > 100 µM (inactive) | > 100 µM (inactive) | > 100 µM (inactive) | > 100 µM (inactive) | 45.1 µM (inactive) | > 100 µM (inactive) | 57.7 µM (inactive) |  | > 100 µM (inactive) | > 100 µM (inactive) | > 100 µM (inactive) | > 100 µM (inactive) | > 100 µM (inactive) | > 100 µM (inactive) | 
O=c1c2ccccc2nc(N/N=C/c2ccccc2O)n1-c1ccccc1 | 4.8 µM (inactive) | 3.99 µM (inactive) | 2.97 | 2.65 µM (inactive) | 4.55 µM (inactive) | 7.82 µM (inactive) | 4.04 µM (inactive) | 4.71 µM (inactive) | 6.21 µM (inactive) | 4.01 µM (inactive) | 3.57 µM (inactive) | 5.31 µM (inactive) | 11.4 µM (inactive) | 13.8 µM (inactive) | 6.24 µM (inactive) |  | 5.75 µM (inactive) | 2.54 µM (inactive) | 
Cc1ccc(NC2=CC(=O)C(NO)c3ccccc32)cc1 (configuration not stated) | 3.09 µM (inactive) | 2.81 µM (inactive) | 2.79 | 2 µM (inactive) | 4.35 µM (inactive) |  | 2.93 µM (inactive) | 1.89 µM (inactive) | 1.64 µM (inactive) | 3.22 µM (inactive) |  | 3.01 µM (inactive) | 8.13 µM (inactive) | 10.8 µM (inactive) | 3.36 µM (inactive) |  | 3.24 µM (inactive) | 2.82 µM (inactive) | 2.74 µM (inactive)
CC(C)c1c(O[Si](C(C)C)(C(C)C)C(C)C)cc2c(c1O)CC[C@H]1C(C)(C)CCC[C@]21C | > 100 µM (inactive) | > 100 µM (inactive) | > 100 | 24.6 µM (inactive) | > 100 µM (inactive) | > 100 µM (inactive) | > 100 µM (inactive) | > 100 µM (inactive) | 97.5 µM (inactive) | > 100 µM (inactive) | > 100 µM (inactive) | > 100 µM (inactive) | > 100 µM (inactive) | > 100 µM (inactive) | > 100 µM (inactive) |  | > 100 µM (inactive) | > 100 µM (inactive) | 
